Columns and labels:
[1] = test system: eggs of Tetranychus urticae; test: Effect on hatching of eggs of Tetranychus urticae, leaf disc method; type: in vivo; settings: 5 ppm; for Hatching rate (%): 5 days after insecticide delivery
How it was run: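 Twenty adult female Tetranychus urticae mites were placed on 2.0 cm Vicia faba leaf discs over wetted filter paper in lidded dishes kept moist, and removed within 36 hours. Eggs on each disc were counted under a microscope. The egg-bearing discs were dipped for 10 seconds in a compound solution at 5 ppm or in clear water, then kept moist, and hatching was checked five days after treatment.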

eggs of Panonychus citri = test: Effect on hatching of eggs of Panonychus citri, leaf disc method; type: in vivo; settings: 1 ppm; for Hatching rate (%), Replicate 1 / Hatching rate (%), Replicate 2 / Hatching rate (%), Replicate 3 / Number of hatched larvae 5 days after insecticide delivery, Replicate 1 / Number of hatched larvae 5 days after insecticide delivery, Replicate 2 / Number of hatched larvae 5 days after insecticide delivery, Replicate 3: Panonychus citri eggs; for Hatching rate (%), Replicate 1 / Hatching rate (%), Replicate 2 / Hatching rate (%), Replicate 3: 5 days after delivery; for Number of hatched larvae 5 days after insecticide delivery, Replicate 1 / Number of hatched larvae 5 days after insecticide delivery, Replicate 2 / Number of hatched larvae 5 days after insecticide delivery, Replicate 3: leaf disc
Magnaporthe grisea = type: cell-based; settings: 100 ppm; for Average antifungal rate (%) / Antifungal rate of Magnaporthe grisea (%), Replicate 1 / Antifungal rate of Magnaporthe grisea (%), Replicate 2 / Antifungal rate of Magnaporthe grisea (%), Replicate 3: 96-well plate; for Average antifungal rate (%): average of 3 replicates
eggs of Thrips = test: Effect on hatching of eggs of Thrips, leaf disc method; type: in vivo; settings: 100 ppm; for Hatching rate (%): 5 days after insecticide delivery
How it was run: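 Thrip egg hatching was tested by the leaf disc method on Vicia faba discs 2.0 cm across, placed over wetted filter paper. Egg numbers on each disc were counted under a microscope before treatment. Discs were then dipped for 10 seconds in clean water or a compound solution at 100 ppm. They were kept moist under normal conditions, and hatching was surveyed five days after insecticide delivery.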

[2] = test system: eggs of Spodoptera litura; test: Effect on hatching of eggs of Spodoptera litura, egg piece soaking; type: in vivo; settings: 500 ppm; for Hatching rate (%), Replicate 1 / Hatching rate (%), Replicate 2 / Hatching rate (%), Replicate 3 / Number of unhatched larvae 4 days after insecticide delivery, Replicate 1 / Number of unhatched larvae 4 days after insecticide delivery, Replicate 2 / Number of unhatched larvae 4 days after insecticide delivery, Replicate 3: Spodoptera litura eggs; for Hatching rate (%), Replicate 1 / Hatching rate (%), Replicate 2 / Hatching rate (%), Replicate 3: 4 days after delivery; for Number of unhatched larvae 4 days after insecticide delivery, Replicate 1 / Number of unhatched larvae 4 days after insecticide delivery, Replicate 2 / Number of unhatched larvae 4 days after insecticide delivery, Replicate 3: soaked 10 minutes
How it was run: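 Egg pieces of about 60 eggs were soaked 10 min in test agent at 500 ppm, blotted, then held singly at 24±1 °C, 80±10% RH, 12:12 L:D. Hatched and unhatched eggs were counted on day 4 to give hatching rate and control effect; 3 replicates.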

[3] = Replicate 1, listed as 19′-(S, R)
[4] = Replicate 2, listed as 19′-(S, R)
[5] = Replicate 3, listed as 19′-(S, R)
[6] = Replicate 1, listed as 19′-(S, S)
[7] = Replicate 2, listed as 19′-(S, S)
[8] = Replicate 3, listed as 19′-(S, S)

SMILES: CC[C@@H](COS(=O)OCCF)Oc1ccc(Cl)cc1Cl (stereo partly drawn) [19′-(S,R)]
- Hatching rate (%) [1, 3]: 10.81%
- Hatching rate (%) [1, 4]: 11.49%
- Number of hatched larvae 5 days after insecticide delivery [1, 3]: 12
- Number of hatched larvae 5 days after insecticide delivery [1, 4]: 10
- Hatching rate (%), Replicate 1 (eggs of Panonychus citri; listed as 19′-(S, R)): 9.57%
- Hatching rate (%), Replicate 2 (eggs of Panonychus citri; listed as 19′-(S, R)): 10.28%
- Hatching rate (%), Replicate 3 (eggs of Panonychus citri; listed as 19′-(S, R)): 10.08%
- Number of hatched larvae 5 days after insecticide delivery, Replicate 1 (eggs of Panonychus citri; listed as 19′-(S, R)): 9
- Number of hatched larvae 5 days after insecticide delivery, Replicate 2 (eggs of Panonychus citri; listed as 19′-(S, R)): 11
- Number of hatched larvae 5 days after insecticide delivery, Replicate 3 (eggs of Panonychus citri; listed as 19′-(S, R)): 12
- inhibitory rate against Magnaporthe grisea (in words) (Magnaporthe grisea): strong inhibitory rate
- Average antifungal rate (%) (Magnaporthe grisea): 86.23%
- Antifungal rate of Magnaporthe grisea (%), Replicate 1 (Magnaporthe grisea): 86.44%
- Antifungal rate of Magnaporthe grisea (%), Replicate 2 (Magnaporthe grisea): 85.97%
- Antifungal rate of Magnaporthe grisea (%), Replicate 3 (Magnaporthe grisea): 86.28%
- Hatching rate (%) (eggs of Thrips; [3]): 9.40%
- Hatching rate (%) (eggs of Thrips; [4]): 10.32%
- Hatching rate (%) (eggs of Thrips; [5]): 9.52%
- Number of hatched larvae 5 days after insecticide delivery (eggs of Thrips; [3]): 11
- Number of hatched larvae 5 days after insecticide delivery (eggs of Thrips; [4]): 13
- Number of hatched larvae 5 days after insecticide delivery (eggs of Thrips; [5]): 8
- Hatching rate (%), Replicate 1 ([2]; listed as 19′-(S, R)): 53.57%
- Hatching rate (%), Replicate 2 ([2]; listed as 19′-(S, R)): 53.23%
- Hatching rate (%), Replicate 3 ([2]; listed as 19′-(S, R)): 53.73%
- Number of unhatched larvae 4 days after insecticide delivery, Replicate 1 ([2]; listed as 19′-(S, R)): 26
- Number of unhatched larvae 4 days after insecticide delivery, Replicate 2 ([2]; listed as 19′-(S, R)): 29
- Number of unhatched larvae 4 days after insecticide delivery, Replicate 3 ([2]; listed as 19′-(S, R)): 31

SMILES: CC[C@@H](COS(=O)OCCF)Oc1ccc(Cl)cc1Cl (stereo partly drawn) [19′-(S,S)]
- inhibitory activity on the hatching of eggs of Tetranychus urticae (in words) [1]: strong inhibitory activities
- Hatching rate (%) [1, 6]: 0.00%
- Hatching rate (%) [1, 7]: 0.00%
- Number of hatched larvae 5 days after insecticide delivery [1, 6]: 0
- Number of hatched larvae 5 days after insecticide delivery [1, 7]: 0
- inhibitory effect on the hatching of eggs of Panonychus citri (in words) (eggs of Panonychus citri): good inhibitory effects
- Hatching rate (%), Replicate 1 (eggs of Panonychus citri; listed as 19′-(S, S)): 0.00%
- Hatching rate (%), Replicate 2 (eggs of Panonychus citri; listed as 19′-(S, S)): 0.00%
- Hatching rate (%), Replicate 3 (eggs of Panonychus citri; listed as 19′-(S, S)): 0.00%
- Number of hatched larvae 5 days after insecticide delivery, Replicate 1 (eggs of Panonychus citri; listed as 19′-(S, S)): 0
- Number of hatched larvae 5 days after insecticide delivery, Replicate 2 (eggs of Panonychus citri; listed as 19′-(S, S)): 0
- Number of hatched larvae 5 days after insecticide delivery, Replicate 3 (eggs of Panonychus citri; listed as 19′-(S, S)): 0
- inhibitory rate against Magnaporthe grisea (in words) (Magnaporthe grisea): strong inhibitory rate
- Average antifungal rate (%) (Magnaporthe grisea): 97.09%
- Antifungal rate of Magnaporthe grisea (%), Replicate 1 (Magnaporthe grisea): 97.41%
- Antifungal rate of Magnaporthe grisea (%), Replicate 2 (Magnaporthe grisea): 96.58%
- Antifungal rate of Magnaporthe grisea (%), Replicate 3 (Magnaporthe grisea): 97.29%
- inhibitory activity on the hatching of eggs of Thrips (in words) (eggs of Thrips): strong inhibitory activities
- Hatching rate (%) (eggs of Thrips; [6]): 0.00%
- Hatching rate (%) (eggs of Thrips; [7]): 0.00%
- Hatching rate (%) (eggs of Thrips; [8]): 0.00%
- Number of hatched larvae 5 days after insecticide delivery (eggs of Thrips; [6]): 0
- Number of hatched larvae 5 days after insecticide delivery (eggs of Thrips; [7]): 0
- Number of hatched larvae 5 days after insecticide delivery (eggs of Thrips; [8]): 0
- inhibitory activity on the hatching of eggs of Spodoptera litura (in words) [2]: good inhibitory activities
- Hatching rate (%), Replicate 1 ([2]; listed as 19′-(S, S)): 17.54%
- Hatching rate (%), Replicate 2 ([2]; listed as 19′-(S, S)): 19.70%
- Hatching rate (%), Replicate 3 ([2]; listed as 19′-(S, S)): 18.87%
- Number of unhatched larvae 4 days after insecticide delivery, Replicate 1 ([2]; listed as 19′-(S, S)): 47
- Number of unhatched larvae 4 days after insecticide delivery, Replicate 2 ([2]; listed as 19′-(S, S)): 53
- Number of unhatched larvae 4 days after insecticide delivery, Replicate 3 ([2]; listed as 19′-(S, S)): 43

SMILES: CC(COS(=O)OCCF)Oc1ccc(Cl)cc1Cl (stereo not shown) [Compound 1]
- inhibitory activity on the hatching of eggs of Tetranychus urticae (in words) [1]: strong inhibitory activities
- Hatching rate (%) ([1]; Replicate 1): 0.94%
- Hatching rate (%) ([1]; Replicate 2): 1.30%
- Number of hatched larvae 5 days after insecticide delivery ([1]; Replicate 1): 1
- Number of hatched larvae 5 days after insecticide delivery ([1]; Replicate 2): 1
- inhibitory effect on the hatching of eggs of Panonychus citri (in words) (eggs of Panonychus citri): good inhibitory effects
- Hatching rate (%), Replicate 1 (eggs of Panonychus citri): 0.00%
- Hatching rate (%), Replicate 2 (eggs of Panonychus citri): 0.00%
- Hatching rate (%), Replicate 3 (eggs of Panonychus citri): 0.00%
- Number of hatched larvae 5 days after insecticide delivery, Replicate 1 (eggs of Panonychus citri): 0
- Number of hatched larvae 5 days after insecticide delivery, Replicate 2 (eggs of Panonychus citri): 0
- Number of hatched larvae 5 days after insecticide delivery, Replicate 3 (eggs of Panonychus citri): 0
- inhibitory rate against Magnaporthe grisea (in words) (Magnaporthe grisea): strong inhibitory rate
- Average antifungal rate (%) (Magnaporthe grisea): 95.42%
- Antifungal rate of Magnaporthe grisea (%), Replicate 1 (Magnaporthe grisea): 96.34%
- Antifungal rate of Magnaporthe grisea (%), Replicate 2 (Magnaporthe grisea): 95.11%
- Antifungal rate of Magnaporthe grisea (%), Replicate 3 (Magnaporthe grisea): 94.82%
- inhibitory activity on the hatching of eggs of Thrips (in words) (eggs of Thrips): strong inhibitory activities
- Hatching rate (%) (eggs of Thrips; Replicate 1): 0.00%
- Hatching rate (%) (eggs of Thrips; Replicate 2): 1.57%
- Hatching rate (%) (eggs of Thrips; Replicate 3): 0.00%
- Number of hatched larvae 5 days after insecticide delivery (eggs of Thrips; Replicate 1): 0
- Number of hatched larvae 5 days after insecticide delivery (eggs of Thrips; Replicate 2): 2
- Number of hatched larvae 5 days after insecticide delivery (eggs of Thrips; Replicate 3): 0
- Hatching rate (%), Replicate 1 [2]: 41.38%
- Hatching rate (%), Replicate 2 [2]: 39.68%
- Hatching rate (%), Replicate 3 [2]: 40.42%
- Number of unhatched larvae 4 days after insecticide delivery, Replicate 1 [2]: 34
- Number of unhatched larvae 4 days after insecticide delivery, Replicate 2 [2]: 38
- Number of unhatched larvae 4 days after insecticide delivery, Replicate 3 [2]: 37

From patent US20260184675A1, “CHIRAL ISOMERIC SULFITE COMPOUND AND APPLICATION THEREOF” (Chengdu Hanova BioSciences Co., Ltd, priority 2024, published 2026)
